From patent US7049344B2 (Wilex Biotechnology GmbH, priority 2000, dated 2006)
Structures can show the parent of a compound that is named as a salt.

Columns and labels:
[1] = target: T1, uPA (sc-urokinase) (Homo sapiens, UniProt P00749); assay: In-vitro inhibition of urokinase, chromogenic substrate, Dixon Ki; format: biochemical; conditions: 25° C, pH 8.0; average of at least three determinations; read-out: K1 uPA
T1 construct: purchased Ribosepharm GmbH, Haan, Germany
Protocol: (§1) The uPA inhibitor activity was determined by incubating 200 μl of Tris buffer (0.05 mol/l, containing the inhibitor, 0.154 mol/l NaCl, 5% ethanol, pH 8.0), 25 μl of substrate (Pefachrome UK or BZ-β-Ala-Gly-Arg-pNA in H2O; Pentapharm Ltd, Basle, Switzerland) and 50 μl of sc-urokinase (Ribosepharm GmbH, Haan, Germany) or another corresponding protease at 25° C. After 3 min, the reaction was interrupted by adding 25 μl of acetic acid (50%) and absorbance at 405 nm was determined by means of a microplate reader (MR 5000, Dynatech, Denkendorf, Germany). The Ki values were determined by linear regression according to Dixon by means of a computer program. The Ki values are the average of at least three determinations, and the standard deviation was below 25%.

[2] = target: FXA (UniProt P00743); assay: In-vitro protease inhibition, chromogenic substrate, Dixon Ki; format: biochemical; conditions: 25° C, pH 8.0; read-out: K1 FXA
Protocol: as §1

[3] = target: Plasmin (Homo sapiens, UniProt P00747); assay: as above; format: biochemical; conditions: 25° C, pH 8.0; read-out: K1 Plasmin
Protocol: as §1

[4] = target: Thrombin (UniProt P00735); assay: as above; format: biochemical; conditions: 25° C, pH 8.0; read-out: K1 Thrombin
Protocol: as §1

[5] = target: T2, Trypsin (UniProt P00760); assay: as above; format: biochemical; conditions: 25° C, pH 8.0; read-out: K1 Trypsin
T2 sequence (P00760 1-246): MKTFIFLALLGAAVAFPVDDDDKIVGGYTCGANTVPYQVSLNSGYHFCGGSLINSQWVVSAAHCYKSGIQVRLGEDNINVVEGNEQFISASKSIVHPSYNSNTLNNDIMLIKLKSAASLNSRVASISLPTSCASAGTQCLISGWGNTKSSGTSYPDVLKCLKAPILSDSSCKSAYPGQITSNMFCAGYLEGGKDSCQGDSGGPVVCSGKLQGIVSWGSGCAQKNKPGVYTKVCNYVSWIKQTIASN
Protocol: as §1

[6] = tested on: rat breast adenocarcinoma cells; conditions: after i.v. inoculation of rat breast adenocarcinoma cells; cited from earlier work
[7] = tested on: rat prostate cancer; conditions: syngeneic model of rat prostate cancer; cited from earlier work
[8] = tested on: mouse breast cancer; conditions: cited from earlier work
[9] = tested on: DU145 tumors (a prostate adenocarcinoma cell line); conditions: SCID mice, oral, daily dose of 125 to 250 mg/kg/day; cited from earlier work

Sequence of Plasmin (P00747 581-810 limits assumed, species assumed): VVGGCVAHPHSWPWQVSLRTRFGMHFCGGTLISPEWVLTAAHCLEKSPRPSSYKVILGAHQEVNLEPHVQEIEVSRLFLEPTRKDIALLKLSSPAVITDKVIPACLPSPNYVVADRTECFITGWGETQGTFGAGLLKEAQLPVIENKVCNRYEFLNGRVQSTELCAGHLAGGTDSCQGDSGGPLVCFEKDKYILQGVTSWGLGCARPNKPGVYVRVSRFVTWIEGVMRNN
Sequence of Plasmin (P00747 97-580 partner limits assumed, species assumed): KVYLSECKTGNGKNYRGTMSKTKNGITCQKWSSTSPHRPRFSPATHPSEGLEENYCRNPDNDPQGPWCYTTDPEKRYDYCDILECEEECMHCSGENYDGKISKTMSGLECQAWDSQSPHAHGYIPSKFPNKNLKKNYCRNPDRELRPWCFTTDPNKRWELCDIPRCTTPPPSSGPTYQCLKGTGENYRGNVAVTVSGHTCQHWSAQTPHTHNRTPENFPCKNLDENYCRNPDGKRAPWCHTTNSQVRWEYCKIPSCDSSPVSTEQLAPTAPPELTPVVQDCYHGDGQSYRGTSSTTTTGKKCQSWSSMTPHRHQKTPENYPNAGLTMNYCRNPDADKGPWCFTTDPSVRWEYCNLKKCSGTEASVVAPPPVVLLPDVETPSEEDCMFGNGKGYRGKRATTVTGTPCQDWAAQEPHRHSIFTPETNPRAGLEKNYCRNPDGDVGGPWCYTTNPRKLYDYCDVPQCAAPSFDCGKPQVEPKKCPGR

N=C(N)Nc1ccc(CNC(=O)[C@@H](CO)c2ccccc2)cc1 (racemic) [ST-390, N-(4-guanidinobenzyl)-D,L-tropamide Hydrochloride]
Ki [1]: 51 µM | Ki [2]: > 1000 µM | Ki [3]: > 1000 µM | Ki [4]: > 1000 µM | Ki [5]: > 1000 µM

N=C(N)NC(=O)c1nc(Cl)c(N)nc1N [Amiloride]
formation of lung metastases [6]: prevents the formation of lung metastases

N=C(N)c1cc2c(I)cccc2s1 [B428, 4-iodobenzo[b]thiophene-2-carboxamidine]
tumor growth and metastases formation [7]: decrease of tumor growth and metastases formation | primary tumor growth ([8]; B428 administered together with the antiestrogen tamoxifen): further decrease in primary tumor growth | tumor growth and metastases formation ([8]; syngeneic model of mouse breast cancer): decrease of tumor growth and metastases formation

N=C(N)Nc1ccc(CNC(=O)C(C(=O)OCc2ccccc2)C23CC4CC(CC(C4)C2)C3)cc1 (centres unmarked) [ST-100]
Ki [1]: < 1 µM

N=C(N)Nc1ccc(CNC(=O)C(C(=O)OCc2ccccc2)c2ccccc2)cc1 (centres unmarked) [ST-401, N-(4-guanidinobenzyl) 2-(benzyloxycarbonyl)-2-phenylacetamide hydrochloride]
Ki [1]: 1.4 µM | Ki [2]: > 1000 µM | Ki [3]: > 1000 µM | Ki [4]: > 1000 µM

N=C(N)Nc1ccc(CNC(=O)C(C(=O)O)c2ccccc2)cc1 (centres unmarked) [ST-406, N-(4-guanidinobenzyl) 2-(hydroxycarbonyl)-2-phenylacetamide Hydrochloride]
Ki [1]: < 10 µM

N=C(N)c1ccc(N)cc1 [p-Aminobenzamidine]
growth rate of DU145 tumors [9]: distinct decrease | side effects [9]: negligible
